The text below walks through data of US20260193293A1, “PEPTIDES CAPABLE OF INHIBITING PROTEIN-PROTEIN INTERACTIONS AT GABAB1A SUBUNIT AND USES THEREOF” (UNIVERSITY OF COPENHAGEN, priority 2022, published 2026).

The assay addresses Sushi domains (SD1/2) protein. The assay can be described thus: Fluorescence polarization (FP) competition assay with AJAP-1probe, calculated Ki. Format: binding. The gist of the method: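 Ki values were derived from IC50s (sigmoidal fits, ≥ triplicate), with probe Kd obtained by saturation titration of SD1/2. Peptides displaced a 25 nM TAMRA-labelled probe; polarization read at 530/580 nm in 1% BSA-containing PBS, pH 7.4, room temperature.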

[1] abbreviates: Table 9, Ala-, D-amino acids and N-methylation scans of PIANPWT, read-out: Ki (nM) mean ± SEM.
Where [2] appears, read: Table 7, Ala-, D-amino acids and N-methylation scans of APPWT, read-out: Ki (nM) mean ± SEM.
The mark [3] stands for this setting: Table 8, in μM, read-out: Ki (nM) mean ± SEM.
[4] abbreviates: Table 16, ncAAs incorporated peptides, read-out: Ki (nM) mean ± SEM.
[5] abbreviates: Table 5, elongation and truncation scan of AJAP-1 binding epitope, read-out: Ki (nM) mean ± SEM.

Where two headings read alike, the source gives them in different places. Non-standard residues stand in square brackets, D forms with d. Residues, ends and D or L forms follow the SMILES beside them. NMeW = CN[C@@H](Cc1c[nH]c2ccccc12)C(=O)O; Phe(4-F) = N[C@@H](Cc1ccc(F)cc1)C(=O)O; 1Nal = N[C@@H](Cc1cccc2ccccc12)C(=O)O; 2Nal = N[C@@H](Cc1ccc2ccccc2c1)C(=O)O; NMeE = CN[C@@H](CCC(=O)O)C(=O)O; NMeD = CN[C@@H](CC(=O)O)C(=O)O; NMeV = CN[C@H](C(=O)O)C(C)C; Sar = CNCC(=O)O

For the compound `CC[C@H](C)[C@H](NC(=O)[C@H](Cc1c[nH]c2ccccc12)NC(=O)[C@H](CC(=O)O)NC(=O)[C@H](CC(=O)O)NC(=O)[C@H](CC(=O)O)NC(=O)[C@H](CCC(=O)O)NC(=O)[C@H](CCCNC(=N)N)NC(=O)[C@H](CCCNC(=N)N)NC(=O)[C@H](CCCNC(=N)N)NC(=O)[C@H](CCCNC(=N)N)NC(C)=O)C(=O)N[C@@H](CC(=O)O)C(=O)N[C@@H](Cc1c[nH]c2ccccc12)C(=O)N[C@@H](Cc1ccc(O)cc1)C(=O)N[C@@H](CC(=O)O)C(=O)N[C@@H](CO)C(=O)N[C@@H](CC(=O)O)C(=O)N[C@@H](CC(=O)O)C(=O)N[C@@H](CC(=O)O)C(N)=O` [Peptide 4R-16] (Ac-RRRREDDDWIDWYDSDDD-NH2), the Ki (Table 14, CPPs tagged peptides, read-out: Ki (nM) mean ± SEM) was 20.6 ± 0.2 nM. In the case of `CC[C@H](C)[C@H](NC(=O)[C@H](C)NC(=O)[C@H](Cc1c[nH]c2ccccc12)NC(=O)[C@@H]1CCCN1C(C)=O)C(=O)N[C@H](C(=O)N[C@@H](Cc1c[nH]c2ccccc12)C(=O)NCC(=O)N(C)CC(=O)N[C@H](C(=O)N[C@H](C(=O)N[C@@H](CO)C(=O)N[C@@H](CCCNC(=N)N)C(=O)N[C@@H](CCC(=O)O)C(=O)N[C@@H](CC(=O)O)C(N)=O)C(C)C)[C@@H](C)O)C(C)C` [PWAIVWG(N-Me-G)TVSRED] (Ac-PWAIVWG[Sar]TVSRED-NH2), the Ki was 525 ± 22 nM under setting [1] and 525 ± 22 nM (Table 13, peptides for affinity maturation, read-out: Ki (nM) mean ± SEM).

Regarding `CC[C@H](C)[C@H](NC(=O)[C@H](C)NC(=O)[C@H](Cc1c[nH]c2ccccc12)NC(=O)[C@@H]1CCCN1C(C)=O)C(=O)N(C)[C@H](C(=O)N[C@@H](Cc1c[nH]c2ccccc12)C(=O)NCC(=O)N1CCC[C@H]1C(=O)N[C@H](C(=O)N[C@H](C(=O)N[C@@H](CO)C(=O)N[C@@H](CCCNC(=N)N)C(=O)N[C@@H](CCC(=O)O)C(=O)N[C@@H](CC(=O)O)C(N)=O)C(C)C)[C@@H](C)O)C(C)C` [PWAI(N-Me-V)WGPTVSRED] (Ac-PWAI[NMeV]WGPTVSRED-NH2), the Ki under setting [1] was 7000 ± 100 nM.

For the compound `CC[C@H](C)[C@H](NC(=O)[C@H](C)NC(=O)[C@H](Cc1c[nH]c2ccccc12)NC(=O)[C@@H]1CCCN1C(C)=O)C(=O)N[C@H](C(=O)N[C@@H](Cc1c[nH]c2ccccc12)C(=O)NCC(=O)N1CCC[C@H]1C(=O)N[C@H](C(=O)N[C@H](C(=O)N[C@@H](CO)C(=O)N[C@@H](CCCNC(=N)N)C(=O)N[C@@H](CCC(=O)O)C(=O)N[C@@H](CC(=O)O)C(=O)NCC(=O)NCC(=O)N[C@@H](CC(=O)O)C(=O)N1CCC[C@H]1C(=O)N[C@@H](CC(N)=O)C(=O)N[C@@H](CO)C(N)=O)C(C)C)[C@@H](C)O)C(C)C` (Ac-PWAIVWGPTVSREDGGDPNS-NH2), the Ki (Table 6, elongation and truncation scan of PIANP binding epitope, read-out: Ki (nM) mean ± SEM) was 706 ± 16 nM. As to `CC(=O)N[C@@H](CCC(=O)O)C(=O)N[C@@H](CC(=O)O)C(=O)N[C@@H](CC(=O)O)C(=O)N[C@@H](CO)C(=O)N[C@@H](CC(=O)O)C(=O)N[C@H](C(=O)N[C@@H](Cc1c[nH]c2ccccc12)C(=O)N[C@@H](Cc1c[nH]c2ccccc12)C(=O)NCC(=O)NCC(=O)N[C@@H](C)C(=O)N[C@@H](CC(=O)O)C(=O)N[C@H](C(=O)N(C)[C@@H](CC(=O)O)C(N)=O)[C@@H](C)O)C(C)C` (Ac-EDDSDVWWGGADT[NMeD]-NH2), under setting [2], the Ki was 565 ± 23 nM. Turning to “ETEFlaWGPTGDED (Ac-ETEFI[dA]WGPTGDED-NH2)”, the Ki under setting [3] is over 6250 nM. Take “EDDS(Fphe)VWWGGADTD (Ac-EDDS[Phe(4-F)]VWWGGADTD-NH2)”: under setting [4], the Ki is 117 ± 2 nM. As for `CC(=O)N1CCC[C@H]1C(=O)N[C@@H](Cc1c[nH]c2ccccc12)C(=O)N[C@@H](C)C(=O)N[C@@H](C)C(=O)N[C@H](C(=O)N[C@@H](Cc1c[nH]c2ccccc12)C(=O)NCC(=O)N1CCC[C@H]1C(=O)N[C@H](C(=O)N[C@H](C(=O)N[C@@H](CO)C(=O)N[C@@H](CCCNC(=N)N)C(=O)N[C@@H](CCC(=O)O)C(=O)N[C@@H](CC(=O)O)C(N)=O)C(C)C)[C@@H](C)O)C(C)C` [PWAAVWGPTVSRED] (Ac-PWAAVWGPTVSRED-NH2), the Ki under setting [1] is 46600 ± 4840 nM. Take `CC[C@H](C)[C@H](NC(=O)[C@H](Cc1ccccc1)NC(=O)[C@H](CCC(=O)O)NC(=O)[C@@H](NC(=O)[C@H](CCC(=O)O)NC(=O)[C@@H](NC(C)=O)[C@@H](C)O)[C@@H](C)O)C(=O)N[C@@H](C)C(=O)N[C@@H](Cc1c[nH]c2ccccc12)C(=O)NCC(=O)N1CCC[C@H]1C(=O)N[C@H](C(=O)NCC(=O)N[C@@H](CC(=O)O)C(N)=O)[C@@H](C)O` (Ac-TETEFIAWGPTGD-NH2): under setting [5], the Ki was 97 ± 7 nM. As for `CC[C@H](C)[C@H](NC(=O)[C@H](C)NC(=O)[C@H](Cc1c[nH]c2ccccc12)NC(=O)[C@@H]1CCCN1C(C)=O)C(=O)N[C@@H](CC(=O)O)C(=O)N[C@@H](Cc1c[nH]c2ccccc12)C(=O)NCC(=O)N1CCC[C@H]1C(=O)N[C@H](C(=O)N[C@H](C(=O)N[C@@H](CO)C(=O)N[C@@H](CCCNC(=N)N)C(=O)N[C@@H](CCC(=O)O)C(=O)N[C@@H](CC(=O)O)C(N)=O)C(C)C)[C@@H](C)O` [PWAIDWGPTVSRED] (Ac-PWAIDWGPTVSRED-NH2), the Ki (Table 12, deep mutational scanning validation variants of PIANPWT, read-out: Ki (nM) mean ± SEM) is 1300 ± 16 nM.

In the case of `CC(=O)N[C@@H](CCC(=O)O)C(=O)N[C@@H](CC(=O)O)C(=O)N[C@@H](CC(=O)O)C(=O)N[C@@H](CO)C(=O)N[C@@H](CC(=O)O)C(=O)N[C@H](C(=O)N(C)[C@@H](Cc1c[nH]c2ccccc12)C(=O)N[C@@H](Cc1c[nH]c2ccccc12)C(=O)NCC(=O)NCC(=O)N[C@@H](C)C(=O)N[C@@H](CC(=O)O)C(=O)N[C@H](C(=O)N[C@@H](CC(=O)O)C(N)=O)[C@@H](C)O)C(C)C` [EDDSDV(N-Me-W)WGGADTD] (Ac-EDDSDV[NMeW]WGGADTD-NH2), the Ki under setting [2] is 85600 ± 10100 nM. Consider `CC[C@H](C)[C@H](NC(=O)[C@H](Cc1ccccc1)NC(=O)[C@H](CCC(=O)O)NC(=O)[C@@H](NC(=O)[C@H](CCC(=O)O)NC(C)=O)[C@@H](C)O)C(=O)N[C@@H](C)C(=O)N[C@@H](Cc1c[nH]c2ccccc12)C(=O)N(C)CC(=O)N1CCC[C@H]1C(=O)N[C@H](C(=O)NCC(=O)N[C@@H](CC(=O)O)C(=O)N[C@@H](CCC(=O)O)C(=O)N[C@@H](CC(=O)O)C(N)=O)[C@@H](C)O` [ETEFIAW(N-Me-G)PTGDED] (Ac-ETEFIAW[Sar]PTGDED-NH2), for which the Ki under setting [3] was over 6250 nM.

Consider `CC[C@H](C)[C@H](NC(=O)[C@H](Cc1ccccc1)NC(=O)[C@H](CCC(=O)O)NC(=O)[C@@H](NC(=O)[C@H](CCC(=O)O)NC(=O)[C@@H](NC(C)=O)[C@@H](C)O)[C@@H](C)O)C(=O)N[C@@H](C)C(=O)N[C@@H](Cc1c[nH]c2ccccc12)C(=O)NCC(=O)N1CCC[C@H]1C(=O)N[C@H](C(=O)NCC(=O)N[C@@H](CC(=O)O)C(=O)N[C@@H](CCC(=O)O)C(=O)N[C@@H](CC(=O)O)C(=O)N[C@@H](C)C(=O)N[C@@H](CC(C)C)C(N)=O)[C@@H](C)O` (Ac-TETEFIAWGPTGDEDAL-NH2), for which the Ki under setting [5] is 47 ± 2 nM.

In the case of `CC(=O)N[C@@H](CCC(=O)O)C(=O)N[C@@H](CC(=O)O)C(=O)N[C@@H](CC(=O)O)C(=O)N[C@@H](CO)C(=O)N[C@@H](CC(=O)O)C(=O)N[C@H](C(=O)N[C@@H](Cc1c[nH]c2ccccc12)C(=O)N[C@@H](Cc1c[nH]c2ccccc12)C(=O)N[C@@H](Cc1cccc2ccccc12)C(=O)NCC(=O)N[C@@H](C)C(=O)N[C@@H](CC(=O)O)C(=O)N[C@H](C(=O)N[C@@H](CC(=O)O)C(N)=O)[C@@H](C)O)C(C)C` (Ac-EDDSDVWW[1Nal]GADTD-NH2), the Ki under setting [4] was 114 ± 1 nM. Regarding `CC[C@H](C)[C@H](NC(=O)[C@H](C)NC(=O)[C@H](Cc1c[nH]c2ccccc12)NC(=O)[C@@H]1CCCN1C(C)=O)C(=O)N[C@H](C(=O)N[C@@H](Cc1c[nH]c2ccccc12)C(=O)NCC(=O)N1CCC[C@H]1C(=O)N[C@H](C(=O)N(C)[C@H](C(=O)N[C@@H](CO)C(=O)N[C@@H](CCCNC(=N)N)C(=O)N[C@@H](CCC(=O)O)C(=O)N[C@@H](CC(=O)O)C(N)=O)C(C)C)[C@@H](C)O)C(C)C` (Ac-PWAIVWGPT[NMeV]SRED-NH2), under setting [1], the Ki was 1780 ± 87 nM.

With `CC(=O)N[C@@H](CCC(=O)O)C(=O)N[C@@H](CC(=O)O)C(=O)N[C@@H](CC(=O)O)C(=O)N[C@@H](CO)C(=O)N[C@@H](Cc1ccc2ccccc2c1)C(=O)N[C@H](C(=O)N[C@@H](Cc1c[nH]c2ccccc12)C(=O)N[C@@H](Cc1c[nH]c2ccccc12)C(=O)NCC(=O)NCC(=O)N[C@@H](C)C(=O)N[C@@H](CC(=O)O)C(=O)N[C@H](C(=O)N[C@@H](CC(=O)O)C(N)=O)[C@@H](C)O)C(C)C` (Ac-EDDS[2Nal]VWWGGADTD-NH2), for the setting “purified peptides, read-out: Ki”, the Ki is 43 nM. Besides, the “fold increased affinity compared to Asp207Trp” value (relative to Asp207Trp mutant of APPWT) is 2 fold. Consider `CC(=O)N[C@@H](CCC(=O)O)C(=O)N[C@@H](CC(=O)O)C(=O)N[C@@H](CC(=O)O)C(=O)N[C@@H](CO)C(=O)N[C@@H](CC(=O)O)C(=O)N[C@H](C(=O)N[C@@H](Cc1c[nH]c2ccccc12)C(=O)N[C@@H](Cc1c[nH]c2ccccc12)C(=O)NCC(=O)NCC(=O)N[C@@H](C)C(=O)N[C@@H](CC(=O)O)C(=O)N[C@H](C(=O)N[C@@H](CC(=O)O)C(=O)N[C@@H](Cc1ccc(O)cc1)C(=O)N[C@@H](C)C(=O)N[C@@H](CC(=O)O)C(N)=O)[C@@H](C)O)C(C)C` (Ac-EDDSDVWWGGADTDYAD-NH2), for which the Ki (Table 4, truncation and elongation scans of APP epitope, read-out: Ki (nM) mean ± SEM) is 281 ± 4 nM. `CC[C@H](C)[C@H](NC(=O)[C@H](C)NC(=O)[C@H](Cc1c[nH]c2ccccc12)NC(=O)[C@@H]1CCCN1C(C)=O)C(=O)N[C@H](C(=O)N[C@@H](Cc1c[nH]c2ccccc12)C(=O)NCC(=O)N1CCC[C@H]1C(=O)N[C@H](C(=O)N[C@H](C(=O)N[C@@H](CO)C(=O)N[C@@H](CCCNC(=N)N)C(=O)N(C)[C@@H](CCC(=O)O)C(=O)N[C@@H](CC(=O)O)C(N)=O)C(C)C)[C@@H](C)O)C(C)C` (Ac-PWAIVWGPTVSR[NMeE]D-NH2): the Ki under setting [1] is 523 ± 13 nM.
